Read-outs that look alike come from different tables or passages of the source.
Experiments:
HIV protease [1] = target: T1, HIV protease (Human immunodeficiency virus type 1 group M subtype B, UniProt P04585); conditions: FRET assay, Henderson equation
[2] = system: HIV-1 laboratory viral strain NL4.3 (wild type virus); assay: Anti-viral assay in vitro (MTT, infected MT-4 cells); type: cell-based
Experimental: Anti-viral and Cytotoxicity Assays In Vitro
To evaluate the EC50 of our compounds, various drug concentrations are incubated with the infected cell for six days and then the metabolic activity of the cells is monitored by the MTT assay. (See A. J. Japour et al, Antimicrobial Agents and Chemotherapy, 37, 1095-1101, 1993 and R. Pauwels et al. Journal of Virological Methods, 20, 309-321, 1988)
We use the laboratory viral strain NL4.3 as wild type virus and the cell line used is MT-4 which is a T-cell line highly sensitive to HIV-1. We also use some WT clinical strains. To address the resistance issue we assay the inhibitors with NL4.3 mutants which are designed to be resistant to specific commercially,available inhibitors

HIV protease [3] = target: T1, HIV protease; assay: biochemical
[4] = Human immunodeficiency virus 1, MT4, 144 h, MT-4 cells infected with NL4.3, six days, MTT assay, read-out: EC50

Row | Structure (SMILES) | Ki (HIV protease [1]) | EC50 ([2]; MT-4 cells infected with NL4.3, six days, MTT assay, read-out: EC50) | Ki (HIV protease [3]) | EC50 [2, 4] | EC50 ([2]; Human immunodeficiency virus 1, MT4, 144 h)
1 | COC(=O)N[C@@H](Cc1ccccc1-c1ccccc1)C(=O)NCCCCC(CO)N(CC(C)C)S(=O)(=O)c1ccc(N)cc1 (stereo partly drawn) [Example 30, (1S,5R,S)-(1-{5-[(4-Amino-benzenesulfonyl)-isobutyl-amino]-6-hydroxy-hexylcarbamoyl}-2-biphenyl-2-yl-ethyl)-carbamic Acid Methyl Ester] | 1.4 nM | 344 nM |  |  | 
2 | CC(C)CN([C@H](CO)CCCCNC(=O)[C@@H](NC(=O)C1CCCCC1)C(c1ccccc1)c1ccccc1)S(=O)(=O)c1ccc(N)cc1 [Example 76, (1S,5S)-Cyclohexanecarboxylic Acid (1-{5-[(4-Amino-benzenesulfonyl)-isobutyl-amino]-6-hydroxy-hexylcarbamoyl}-2,2-diphenyl-ethyl)-amide] |  |  | < 3.8 nM | 93 nM | 
3 | CC(C)CN([C@H](CO)CCCCNC(=O)[C@H](Cc1ccc2ccccc2c1)NC(=O)N(C)C)S(=O)(=O)c1ccc(N)cc1 [Example 41, (2S,5S)-N-{5-[(4-Amino-benzenesulfonyl)-isobutyl-amino]-6-hydroxy-hexyl}-2-(3,3-dimethyl-ureido)-3-naphthalen-2-yl-propionamide] |  |  | 1.1 nM | 79 nM | 
4 | CC(C)CN([C@H](CO)CCCCNC(=O)[C@@H](NC(=O)c1ccncc1)C(c1ccccc1)c1ccccc1)S(=O)(=O)c1ccc(N)cc1 [Example 74, (1S,5S)-N-(1-{5-[(4-Amino-benzenesulfonyl)-isobutyl-amino]-6-hydroxy-hexylcarbamoyl}-2,2-diphenyl-ethyl)-isonicotinamide] |  |  | 0.647 nM | 32 nM | 
5 | COC(=O)N[C@@H](Cc1ccccc1-c1ccc(OC)cc1)C(=O)NCCCC[C@@H](CO)N(CC(C)C)S(=O)(=O)c1ccc(OC)cc1 [Example 36, (1S,5S)-[1-{6-Hydroxy-5-[isobutyl-(4-methoxy-benzenesulfonyl)-amino]-hexylcarbamoyl}-2-(4′-methoxy-biphenyl-2-yl)-ethyl]-carbamic Acid Methyl Ester] |  |  | 3.2 nM |  | 2180 nM
6 | CC(C)CN([C@H](CO)CCCCNC(=O)[C@H](Cc1ccc2ccccc2c1)NC(=O)c1cccnc1)S(=O)(=O)c1ccc(N)cc1 [Example 54, (1S,5S)-N-(1-{5-[(4-Amino-benzenesulfonyl)-isobutyl-amino]-6-hydroxy-hexylcarbamoyl}-2-naphthalen-2-yl-ethyl)-nicotinanide] |  |  | 1.4 nM | 146 nM | 
7 | COC(=O)N[C@H](C(=O)NCCCC[C@@H](CO)N(CC(C)C)S(=O)(=O)c1ccc(F)cc1)C(c1ccccc1)c1ccccc1 [Example 78, (1S,5S)-(1-{5-[(4-Fluoro-benzenesulfonyl)-isobutyl-amino]-6-hydroxy-hexylcarbamoyl}-2,2-diphenyl-ethyl)-carbamic Acid Methyl Ester] |  |  | < 3.8 nM | 94 nM | 
8 | CC(C)CN([C@H](CO)CCCNC(=O)[C@H](Cc1cccc2ccccc12)NC(=O)N1CCOCC1)S(=O)(=O)c1ccc(N)cc1 [Example 4, (1S,4S)-Morpholine-4-carboxylic Acid (1-{4-[(4-Amino-benzenesulfonyl)-isobutyl-amino]-5-hydroxy-pentylcarbamoyl}-2-naphthalen-1-yl-ethyl)-amide] |  |  | 1.4 nM | 728 nM | 
9 | CC(C)CN([C@H](CO)CCCCNC(=O)[C@H](Cc1ccc2ccccc2c1)NC(=O)N1CCOCC1)S(=O)(=O)c1ccc(N)c(Cl)c1 [Example 51, (1S,5S)-Morpholine-4-carboxylic Acid (1-{5-[(4-Amino-3-chloro-benzenesulfonyl)-isobutyl-amino]-6-hydroxy-hexylcarbamoyl}-2-naphthalen-2-yl-ethyl)-amide] |  |  | 0.8 nM | 194 nM | 
10 | CC(C)CN([C@H](CO)CCCCNC(=O)[C@H](Cc1ccc2ccccc2c1)NC(=O)C1CC1)S(=O)(=O)c1ccc(N)cc1 [Example 47, (1S,5S)-Cyclopropanecarboxylic Acid (1-{5-[(4-Amino-benzenesulfonyl)-isobutyl-amino]-6-hydroxy-hexylcarbamoyl}-2-naphthalen-2-yl-ethyl)-amide] |  |  | 1.4 nM | 323 nM | 
11 | CC(C)CN([C@H](CO)CCCCNC(=O)[C@H](Cc1cccc2ccccc12)NC(=O)N1CCOCC1)S(=O)(=O)c1ccc(N)c(Cl)c1 [Example 44, (1S,5S)-Morpholine-4-carboxylic Acid (1-{5-[(4-Amino-3-chloro-benzenesulfonyl)-isobutyl-amino]-6-hydroxy-hexylcarbamoyl}-2-naphthalen-1-yl-ethyl)-amide] |  |  | 0.904 nM | 134 nM | 
12 | COC(=O)N[C@H](C(=O)NCCCC[C@@H](CO)N(CC(C)C)S(=O)(=O)c1ccc(F)cc1F)C(c1ccccc1)c1ccccc1 [Example 80, (1S,5S)-(1-{5-[(2,4-Difluoro-benzenesulfonyl)-isobutyl-amino]-6-hydroxy-hexylcarbamoyl}-2,2-diphenyl-ethyl)-carbamic Acid Methyl Ester] |  |  | < 3.8 nM | 48 nM | 
13 | CC(C)CN([C@H](CO)CCCCNC(=O)[C@@H](NC(=O)N1CCOCC1)C(c1ccccc1)c1ccccc1)S(=O)(=O)c1ccc(N)cc1 [Example 40, (1S,5S)-Morpholine-4-carboxylic Acid (1-{5-[(4-Amino-benzenesulfonyl)-isobutyl-amino]-6-hydroxy-hexylcarbamoyl}-2,2-diphenyl-ethyl)-amide] |  |  | 0.512 nM | 78 nM | 
14 | COC(=O)N[C@@H](Cc1cccc2ccccc12)C(=O)NCCC[C@@H](CO)N(CC(C)C)S(=O)(=O)c1ccc(N)cc1 [Example 2, (1S,4S)-(1-{4-[(4-Amino-benzenesulfonyl)-isobutyl-amino]-5-hydroxy-pentylcarbamoyl}-2-naphthalen-1-yl-ethyl)-carbamic Acid Methyl Ester] |  |  | 2.8 nM | 674 nM | 
15 | CC(C)CN([C@H](CO)CCCCNC(=O)[C@H](Cc1ccccc1-c1ccccc1)NC(=O)N1CCOCC1)S(=O)(=O)c1ccc(N)cc1 [Example 43, (1S,5S)-Morpholine-4-carboxylic Acid (1-{5-[(4-Amino-benzenesulfonyl)-isobutyl-amino]-6-hydroxy-hexylcarbamoyl}-2-biphenyl-2-yl-ethyl)-amide] |  |  | 0.598 nM | 697 nM | 
16 | COC(=O)N[C@H](C(=O)NCCCC[C@@H](CO)N(CC(C)C)S(=O)(=O)c1ccc(N)cc1)C(c1ccccc1)c1ccccc1 [Example 34, (1S,5S)-(1-{5-[(4-Amino-benzenesulfonyl)-isobutyl-amino]-6-hydroxy-hexylcarbamoyl}-2,2-diphenyl-ethyl)-carbamic Acid Methyl Ester] |  |  | 0.5 nM | 12 nM | 
17 | COc1ccc(-c2ccccc2C[C@H](NC(=O)N2CCOCC2)C(=O)NCCCC[C@@H](CO)N(CC(C)C)S(=O)(=O)c2ccc(N)cc2)cc1 [Example 38, (1S,5S)-Morpholine-4-carboxylic Acid [1-{5-[(4-Amino-benzenesulfonyl)-isobutyl-amino]-6-hydroxy-hexylcarbamoyl}-2-(4′-methoxy-biphenyl-2-yl)-ethyl]-amide] |  |  | 0.533 nM | 93 nM | 
